The assay concerns GI-101A tumors. Set-up: species or system nude mice. As to conditions: mouse, in vivo.

Data on two compounds can be found in US20090098529A1 (priority 2006, published 2009).

Take `N.N.[Cl][Pt][Cl]` [Cisplatin, cis-diamminedichloroplatinum]: the “Effect on tumor growth” value is “decreased the rate of tumor growth, but did not shrink tumors”.
The same measure for `COc1cccc2c1C(=O)c1c(O)c3c(c(O)c1C2=O)C[C@@](O)(C(=O)CO)C[C@@H]3O[C@H]1C[C@H](N)[C@H](O)[C@H](C)O1` [Doxorubicin, doxorubicin]: “did not have any effect on the rate of tumor growth”.
